According to paper PMC10489651, “Six New Phenolic Glycosides from the Seeds of Moringa oleifera Lam. and Their α-Glucosidase Inhibitory Activity” (Molecules, 2023):

Biological target: α-glucosidase
Experiment: colorimetric α-glucosidase inhibition assay (p-nitrophenyl glucopyranoside substrate, […] nm)
Assay type: biochemical

Row | IC50 | Compound
1 | 382.8 ± 1.42 µM | C[C@@H]1O[C@@H](Oc2ccc(Cc3cc(CC#N)ccc3O)cc2)[C@H](O)[C@H](O)[C@H]1O [compound 4, 4-(α-L-rhamnopyranosyl) benzyl-1′-hydroxy-4′-phenylacetonitrile]
2 | 301 ± 6.22 µM | C[C@@H]1O[C@@H](Oc2ccc(C/C(=N/OS(=O)(=O)O)S[C@@H]3O[C@H](CO)[C@@H](O)[C@H](O)[C@H]3O)cc2)[C@H](O)[C@H](O)[C@H]1O [compound 16, glucomoringin]
